For orientation: pIC50 means the IC50 on a negative log10 scale, so that one unit is a factor of ten. Usually pKi stands for −log10 of the Ki, conventionally taken in molar units. What is called logP is the decadic logarithm of the partition coefficient of the neutral form, usually between octanol and water. A lower logP goes with lower lipophilicity.

This is an account of results in ChEMBL document CHEMBL4007427, “Inhibition of the Aldehyde Dehydrogenase 1/2 Family by Psoralen and Coumarin Derivatives” (J Med Chem, 2017).

pIC50, pKi: −log10 of the molar value.

Data set [1] deals with T1, Aldehyde dehydrogenase 1A1 (Homo sapiens, UniProt P00352).
T1 sequence (P00352 whole entry): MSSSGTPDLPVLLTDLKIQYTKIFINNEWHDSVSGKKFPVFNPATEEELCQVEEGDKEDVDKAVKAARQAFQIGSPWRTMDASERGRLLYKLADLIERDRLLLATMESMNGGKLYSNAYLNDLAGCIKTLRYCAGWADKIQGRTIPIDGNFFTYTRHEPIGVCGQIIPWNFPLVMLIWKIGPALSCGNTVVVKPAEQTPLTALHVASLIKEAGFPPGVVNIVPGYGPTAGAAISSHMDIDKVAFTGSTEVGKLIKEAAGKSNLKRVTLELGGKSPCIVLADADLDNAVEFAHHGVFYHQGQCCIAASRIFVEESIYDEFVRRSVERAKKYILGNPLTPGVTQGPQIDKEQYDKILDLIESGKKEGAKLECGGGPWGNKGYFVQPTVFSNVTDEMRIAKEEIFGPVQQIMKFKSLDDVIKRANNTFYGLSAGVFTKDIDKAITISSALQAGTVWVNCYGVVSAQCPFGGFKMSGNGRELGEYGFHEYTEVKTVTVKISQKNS
Description: (§1) Inhibition of full length recombinant human ALDH1A1 expressed in Escherichia coli BL21(DE3) assessed as reduction in dehydrogenase activity by measuring NAD(P)H level preincubated for 2 mins followed by addition of propionaldehyde as substrate in presence of NAD+ by spectrophotometric method

Data set [2] has as its target T1, Aldehyde dehydrogenase 1A1. The source holds these as a separate data set.
In data set [3] the target is T2, Aldehyde dehydrogenase, mitochondrial (Homo sapiens, UniProt P05091).
T2 sequence (P05091 whole entry): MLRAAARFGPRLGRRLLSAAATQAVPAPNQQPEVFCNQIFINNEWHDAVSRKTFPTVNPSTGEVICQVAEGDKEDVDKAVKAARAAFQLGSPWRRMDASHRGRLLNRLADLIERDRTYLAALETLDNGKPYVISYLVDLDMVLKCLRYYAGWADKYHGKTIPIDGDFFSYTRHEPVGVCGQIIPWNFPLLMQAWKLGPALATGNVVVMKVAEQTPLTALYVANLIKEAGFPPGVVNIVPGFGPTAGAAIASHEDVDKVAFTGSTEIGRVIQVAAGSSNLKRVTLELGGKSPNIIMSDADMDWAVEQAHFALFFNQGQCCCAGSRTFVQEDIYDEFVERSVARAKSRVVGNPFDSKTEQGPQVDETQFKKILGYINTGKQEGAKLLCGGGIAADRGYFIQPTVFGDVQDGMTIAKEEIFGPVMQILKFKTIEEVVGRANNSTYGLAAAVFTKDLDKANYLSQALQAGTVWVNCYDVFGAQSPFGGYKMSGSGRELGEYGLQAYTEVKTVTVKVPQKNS
Description: (§2) Inhibition of full length recombinant human ALDH2 expressed in Escherichia coli assessed as reduction in dehydrogenase activity by measuring NAD(P)H level preincubated for 2 mins followed by addition of propionaldehyde as substrate in presence of NAD+ by spectrophotometric method

Data set [4] has as its target T3, Retinal dehydrogenase 2 (Homo sapiens, UniProt O94788).
T3 sequence (O94788 whole entry): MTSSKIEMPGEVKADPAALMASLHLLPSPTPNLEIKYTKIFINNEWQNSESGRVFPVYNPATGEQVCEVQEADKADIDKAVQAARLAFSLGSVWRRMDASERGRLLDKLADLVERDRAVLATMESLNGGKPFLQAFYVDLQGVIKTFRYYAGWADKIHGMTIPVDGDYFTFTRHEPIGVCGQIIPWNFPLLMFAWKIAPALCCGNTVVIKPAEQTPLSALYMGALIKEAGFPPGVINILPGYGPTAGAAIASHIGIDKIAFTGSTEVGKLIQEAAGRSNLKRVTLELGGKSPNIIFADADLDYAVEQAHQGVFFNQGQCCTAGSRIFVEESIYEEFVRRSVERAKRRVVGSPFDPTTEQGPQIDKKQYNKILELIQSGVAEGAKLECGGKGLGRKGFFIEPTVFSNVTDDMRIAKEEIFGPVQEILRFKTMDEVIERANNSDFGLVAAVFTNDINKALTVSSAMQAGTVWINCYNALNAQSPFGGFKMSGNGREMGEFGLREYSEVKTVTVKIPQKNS
Description: Inhibition of full length recombinant human ALDH1A2 expressed in Escherichia coli BL21(DE3) assessed as reduction in dehydrogenase activity by measuring NAD(P)H level preincubated for 2 mins followed by addition of propionaldehyde as substrate in presence of NAD+ by spectrophotometric method

Data set [5] deals with T4, Aldehyde dehydrogenase X, mitochondrial (Homo sapiens, UniProt P30837).
T4 sequence (P30837 whole entry): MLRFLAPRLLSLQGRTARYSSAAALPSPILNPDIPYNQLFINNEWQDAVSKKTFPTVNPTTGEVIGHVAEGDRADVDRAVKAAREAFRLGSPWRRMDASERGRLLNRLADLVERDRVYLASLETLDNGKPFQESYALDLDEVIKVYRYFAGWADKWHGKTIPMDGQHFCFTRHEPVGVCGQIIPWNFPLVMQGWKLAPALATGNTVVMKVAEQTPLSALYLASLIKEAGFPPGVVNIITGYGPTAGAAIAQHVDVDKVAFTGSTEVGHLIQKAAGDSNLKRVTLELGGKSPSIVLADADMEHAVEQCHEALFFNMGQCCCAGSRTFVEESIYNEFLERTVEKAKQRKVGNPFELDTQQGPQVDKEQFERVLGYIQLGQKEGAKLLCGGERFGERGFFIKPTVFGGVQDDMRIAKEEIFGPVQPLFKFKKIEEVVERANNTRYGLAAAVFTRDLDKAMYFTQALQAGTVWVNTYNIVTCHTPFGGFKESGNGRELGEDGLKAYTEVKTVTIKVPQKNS
Description: (§3) Inhibition of full length recombinant human ALDH1B1 expressed in Escherichia coli TunerDE3 assessed as reduction in dehydrogenase activity by measuring NAD(P)H level preincubated for 2 mins followed by addition of propionaldehyde as substrate in presence of NAD+ by spectrophotometric method

Data set [6] concerns the target T5, Aldehyde dehydrogenase, dimeric NADP-preferring (Homo sapiens) (UniProt P30838).
T5 sequence (whole entry): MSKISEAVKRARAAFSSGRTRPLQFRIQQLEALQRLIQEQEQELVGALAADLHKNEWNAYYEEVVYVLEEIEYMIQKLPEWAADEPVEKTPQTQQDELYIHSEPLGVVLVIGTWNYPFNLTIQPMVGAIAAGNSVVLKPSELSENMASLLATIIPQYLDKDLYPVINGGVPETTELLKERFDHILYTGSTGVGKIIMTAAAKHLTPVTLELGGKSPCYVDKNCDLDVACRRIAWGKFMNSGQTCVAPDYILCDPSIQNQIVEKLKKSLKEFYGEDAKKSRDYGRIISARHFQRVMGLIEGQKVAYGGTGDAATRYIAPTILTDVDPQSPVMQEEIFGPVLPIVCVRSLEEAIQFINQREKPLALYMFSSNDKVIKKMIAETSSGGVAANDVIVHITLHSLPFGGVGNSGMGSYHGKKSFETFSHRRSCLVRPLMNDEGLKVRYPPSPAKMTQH
The experiment in a line: Inhibition of full length recombinant human ALDH3A1 expressed in Escherichia coli BL21(DE3) assessed as remaining dehydrogenase activity by measuring NAD(P)H level at 10 uM preincubated for 2 mins followed by addition of propionaldehyde as substrate in presence of NAD+ by spectrophotometric method.

The target in data set [7] is T6, Aldehyde dehydrogenase, mitochondrial (Homo sapiens) (UniProt P05091).
T6 sequence (whole entry): T2 sequence (P05091 whole entry)
The experiment in a line: Inhibition of full length recombinant human ALDH2 expressed in Escherichia coli assessed as remaining dehydrogenase activity by measuring NAD(P)H level at 10 uM preincubated for 2 mins followed by addition of propionaldehyde as substrate in presence of NAD+ by spectrophotometric method.

The target in data set [8] is T7, Aldehyde dehydrogenase, dimeric NADP-preferring (Homo sapiens, UniProt P30838).
T7 sequence (P30838 whole entry): T5 sequence (whole entry)
The experiment in a line: Inhibition of full length recombinant human ALDH3A1 expressed in Escherichia coli BL21(DE3) assessed as reduction in dehydrogenase activity by measuring NAD(P)H level preincubated for 2 mins followed by addition of benzaldehyde as substrate in presence of NADP+ by spectrophotometric method.

Data set [9] deals with T8, Aldehyde dehydrogenase 1A1 (Homo sapiens) (UniProt P00352).
T8 sequence (whole entry): T1 sequence (P00352 whole entry)
The experiment in a line: Inhibition of full length recombinant human ALDH1A1 expressed in Escherichia coli BL21(DE3) assessed as remaining dehydrogenase activity by measuring NAD(P)H level at 10 uM preincubated for 2 mins followed by addition of propionaldehyde as substrate in presence of NAD+ by spectrophotometric method.

Data set [10] deals with T9, Retinaldehyde dehydrogenase 3 (Homo sapiens, UniProt P47895).
T9 sequence (P47895 whole entry): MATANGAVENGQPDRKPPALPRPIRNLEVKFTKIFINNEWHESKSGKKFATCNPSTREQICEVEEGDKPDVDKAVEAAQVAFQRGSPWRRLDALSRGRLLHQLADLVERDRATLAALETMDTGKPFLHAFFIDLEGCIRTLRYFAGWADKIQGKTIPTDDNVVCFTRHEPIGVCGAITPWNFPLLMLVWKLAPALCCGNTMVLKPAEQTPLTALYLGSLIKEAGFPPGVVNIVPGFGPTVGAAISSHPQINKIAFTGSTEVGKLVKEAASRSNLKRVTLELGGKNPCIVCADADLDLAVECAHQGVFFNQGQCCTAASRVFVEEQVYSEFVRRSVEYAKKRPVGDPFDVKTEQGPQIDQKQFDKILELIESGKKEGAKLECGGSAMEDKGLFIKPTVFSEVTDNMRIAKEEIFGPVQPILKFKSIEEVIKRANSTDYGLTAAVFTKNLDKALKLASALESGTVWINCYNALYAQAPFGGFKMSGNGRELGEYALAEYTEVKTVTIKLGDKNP
Description: (§4) Inhibition of full length recombinant human ALDH1A3 expressed in Escherichia coli BL21(DE3) assessed as reduction in dehydrogenase activity by measuring NAD(P)H level preincubated for 2 mins followed by addition of propionaldehyde as substrate in presence of NAD+ by spectrophotometric method

The nature of data set [11]: Lipophilicity, log P of the compound. Type of data set: physicochemical. To be noted: octanol/water.
Data set [12] has as its target T1, Aldehyde dehydrogenase 1A1. The source holds these as a separate data set.
Description: Non-competitive inhibition of full length recombinant human ALDH1A1 expressed in Escherichia coli BL21(DE3) assessed as reduction in dehydrogenase activity by measuring NAD(P)H level using varying levels propionaldehyde in presence of NAD+ by Lineweaver-Burk plot analysis
The target of data set [13] is T2, Aldehyde dehydrogenase, mitochondrial. The source holds these as a separate data set.
Description: as §2
For data set [14], the target named is T1, Aldehyde dehydrogenase 1A1. This is another data set of the same source.
Description: as §1
The target of data set [15] is T5, Aldehyde dehydrogenase, dimeric NADP-preferring (Homo sapiens). The experiment in a line: Inhibition of full length recombinant human ALDH3A1 expressed in Escherichia coli BL21(DE3) assessed as reduction in dehydrogenase activity by measuring NAD(P)H level preincubated for 2 mins followed by addition of benzaldehyde as substrate in presence of NADP+ by spectrophotometric method relative to control.

The target of data set [16] is T9, Retinaldehyde dehydrogenase 3. The source holds these as a separate data set.
Description: as §4
Data set [17] concerns the target T4, Aldehyde dehydrogenase X, mitochondrial. This is another data set of the same source.
Description: as §3
The target of data set [18] is T10, Cytosolic 10-formyltetrahydrofolate dehydrogenase (Rattus norvegicus, UniProt P28037).
T10 sequence (P28037 whole entry): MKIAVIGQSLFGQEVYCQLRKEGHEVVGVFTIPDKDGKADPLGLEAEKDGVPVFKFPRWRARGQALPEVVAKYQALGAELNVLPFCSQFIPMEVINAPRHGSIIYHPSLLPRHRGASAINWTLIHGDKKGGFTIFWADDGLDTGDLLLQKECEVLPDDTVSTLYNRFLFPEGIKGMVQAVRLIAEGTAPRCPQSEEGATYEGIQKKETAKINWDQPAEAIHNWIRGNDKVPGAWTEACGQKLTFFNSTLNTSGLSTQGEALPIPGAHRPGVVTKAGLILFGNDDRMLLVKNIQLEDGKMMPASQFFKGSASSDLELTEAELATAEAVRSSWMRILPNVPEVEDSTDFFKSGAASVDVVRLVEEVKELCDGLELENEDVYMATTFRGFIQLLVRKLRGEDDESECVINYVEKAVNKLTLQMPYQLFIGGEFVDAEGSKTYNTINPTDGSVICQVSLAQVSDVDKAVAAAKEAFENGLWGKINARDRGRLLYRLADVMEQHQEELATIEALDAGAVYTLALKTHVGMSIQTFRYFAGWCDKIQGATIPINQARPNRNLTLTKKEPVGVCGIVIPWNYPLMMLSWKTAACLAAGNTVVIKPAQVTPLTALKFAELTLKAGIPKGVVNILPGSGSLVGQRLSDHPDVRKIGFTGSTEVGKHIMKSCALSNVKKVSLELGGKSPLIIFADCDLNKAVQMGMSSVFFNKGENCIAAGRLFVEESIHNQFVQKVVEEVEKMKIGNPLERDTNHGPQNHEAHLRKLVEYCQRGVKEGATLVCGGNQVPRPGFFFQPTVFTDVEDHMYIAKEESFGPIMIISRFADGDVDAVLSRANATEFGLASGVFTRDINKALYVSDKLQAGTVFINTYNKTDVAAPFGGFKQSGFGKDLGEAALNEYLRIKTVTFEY
The data set can be described thus: Inhibition of rat ALDH1L1 assessed as reduction in dehydrogenase activity by measuring NAD(P)H level preincubated for 2 mins followed by addition of propionaldehyde as substrate in presence of NAD+ by spectrophotometric method.

Data set [19] deals with T2, Aldehyde dehydrogenase, mitochondrial. The experiment in a line: Mixed-type non-competitive inhibition of full length recombinant human ALDH2 expressed in Escherichia coli assessed as reduction in dehydrogenase activity using propionaldehyde as substrate in presence of varying levels NAD+ by Lineweaver-Burk plot analysis.

On to `CCN(CC)c1ccc2c(C)cc(=O)oc2c1`, for which the pIC50 in data set [1] is 6.12; in data set [4], less than 5.00. Further, the pKi in [2] was 6.06; in data set [12], 5.92. The IC50 result in [3], in [5], in data set [8] and in data set [10] was “Not Active” each time. Further, the Activity in data set [6] is 109%; in data set [7], 71.7%; in data set [9], 14.3%. Further, in [11], the logP stood at 3.63.

For `Cc1cc(=O)oc2cc3c(cc12)CCC(=O)O3`, the figures for the negative logarithm of the IC50 (pIC50) in data set [13] and in [8] (read-out: IC50) were 6.33 and 5.27, respectively. In addition, the figures for the Activity in data set [6], in data set [7] and in data set [9] were 53.6%, 25.5% and 65.2%, respectively. For the same molecule, the IC50 result in data set [14] is listed as “Not Active”. The Imax in data set [15] was in the range of 50 to 60%. In data set [11], the logP came to 2.11.

`Cc1c(Cc2ccccc2)c(=O)oc2cc(OS(C)(=O)=O)ccc12`: the pIC50 was 5.55 in [1], 4.96 in [4], 5.00 in data set [16] and 4.89 in data set [17]. Besides, the IC50 entry in [3] and in data set [8] was “Not Active” each time. The figures for the Activity in data set [6], in data set [7] and in data set [9] were 86.9%, 99.7% and 24.6%, respectively. In [11], this molecule registered a logP of 3.44.

Turning to `O=c1c(-c2ccc(O)cc2)coc2cc(O[C@@H]3O[C@H](CO)[C@@H](O)[C@H](O)[C@H]3O)ccc12` [DAIDZIN], the IC50 entry in data set [18] and in data set [8] was “Not Active” throughout. Moreover, the pIC50 was less than 3.70 in [1], 5.35 in data set [4], less than 3.70 in data set [16] and 5.29 in [17].

Consider `Cc1cc(=O)oc2cc(OCC#N)ccc12`, for which the pKi in data set [19] is 5.25; in [12], 5.16. In addition, the Activity in data set [6] was 20.4%; in data set [7], 41.3%; in [9], 35.7%. The molecule further came in with a logP in data set [11] of 1.22.
